Reference: paper PMC12751141, “Disrupting α-Synuclein–ClpP interaction restores mitochondrial function and attenuates neuropathology in Parkinson’s disease models” (Molecular Neurodegeneration, 2025)

Tests used:
[1] = test system: mThy1-hSNCA mice (midbrain); test: Midbrain western blot / co-immunoprecipitation in mThy1-hSNCA mice; format: in vivo, mouse
Protocol: Tissues were homogenized and incubated on ice for 30 min in total lysis buffer (50 mM Tris–HCl, pH 7.5, 150 mM NaCl, 1% Triton X-100, and protease inhibitor). Tissues were then spun at 12,000 rpm for 10 min at 4 °C; the resulting supernatant was triton-soluble fraction. The pellet was further suspended in total lysis buffer with 1% SDS, sonicated and incubated at 100 °C for 3 min, and followed by 20-s vortex. After two more repeats of 100 °C incubation and vortex, the solution was spun at 12,000 rpm for 10 min at 4 °C; the resulting supernatant was triton-insoluble fraction.
Protein concentrations were measured using the Bradford assay. Proteins (30 µg) were then resuspended in Laemmni buffer, loaded on sodium dodecyl sulfate-polyacrylamide gel electrophoresis gels, and transferred to nitrocellulose membranes. The membranes were probed with the indicated antibodies and visualized by electrochemiluminescence.
C57BL/6 N-Tg (Thy1-SNCA)15Mjff/J (JAX: 017682) breeders (C57Bl/6NJ genetic background) were purchased from Jackson Laboratories. The mice were mated, bred, and genotyped in the animal facility of Case Western Reserve University. All mice were maintained at a 12-hour light/dark cycle (on 6 am, off 6 pm). All randomization and peptide treatments in mThy1-hSNCA mice were prepared by an experimenter not associated with the behavioral and neuropathology analysis. Only male mice were used in the study. mThy1-hSNCA transgenic mice and their age-matched WT littermates were implanted with a 28-day subcutaneous osmotic pump (Alzet, Cupertino CA, Model 2004) containing either TAT control peptide or CS2 peptide, which delivered the peptides at indicated rate (1 or 3 or 10 mg/kg/day). The pump was replaced once every four weeks. All mice were sacrificed at age of 10-month for neuropathology assessment.
Cells or tissues were lysed in total lysis buffer (50mM Tris-HCl, pH 7.5, 150mM NaCl, 1% Triton X-100, and protease inhibitor). Total protein lysates (800 µg) were incubated with the indicated antibodies overnight at 4 °C followed by the addition of protein A/G beads (sc-2003, Santa Cruz) for 2 h at 4 °C. Various recombinant αSyn and Clpp (500 ng) were incubated in in vitro interaction buffer (20mM Tris-HCl pH 7.5, 100mM KCl, 2mM MgCl2 and 0.1% Triton-X100) for 30 min at room temperature, and then incubated with indicated antibodies overnight at 4 °C followed by the addition of protein A/G beads for 2 h at 4 °C. The beads with immuno-precipitates were pulled down at 4000 g and washed four times with total lysis buffer/in vitro interaction buffer in the presence of 0.1% Triton X-100 and were analyzed by western blot analysis.

[2] = test system: αSyn-PFF-inoculated primary cortical neurons; test: Immunofluorescence / western blot in αSyn-PFF-inoculated primary cortical neurons; format: cell-based, mouse; settings: 1 µM daily
Protocol: Primary cortical neurons were isolated from normal E18 mouse cortex (sex undetermined) and cultured using complete culturing kit (cat#: KTC57ECX, TransnetYX Tissue). Briefly, 100,000 cells were seeded on poly-D-lysine coated glass coverslips (PDL15mm, TransnetYX Tissue) and cultured in NbActiv1 medium (NB1, TransnetYX Tissue). Neurons were treated with sonicated human α-Syn-PFF (SPR-322, StressMarq Biosciences) starting on post-seeding Day 5 till Day 14. Starting from post-seeding Day 9, TAT or CS2 peptide was added daily at 1µM. Neurons were fixed on Day 14 and subjected for experiments.
Cells were grown on coverslips, fixed with 4% paraformaldehyde for 20 min at room temperature, permeabilized with 0.1% Triton X-100 in PBS, and blocked with 2% normal goat serum. The cells were incubated with the indicated primary antibodies overnight at 4℃. After washing with PBS, the cells were incubated with Alexa Fluor 488/568 or 405/568 secondary antibody (1:500; Thermo Fisher Scientific) for 2 h at room temperature. The nuclei were counterstained with DAPI (1:10000; Sigma-Aldrich). Images of the staining were acquired using a Fluoview FV3000 confocal microscope (Olympus).
Fig. 5 CS2 treatment mitigates αSyn PFF induced neurotoxicity. (A) Representative images of ClpP, αSyn (Syn204; recognize human αSyn only) and NeuN staining in αSyn PFF-inoculated mouse primary cortical neurons that were pre-treated with TAT or CS2 peptide (scale bar = 30 μm). Quantification of ClpP and αSyn co-localization (n = 12–13 neurons/group, two-tailed Student’s t test, data are mean ± SEM). (B-C) Representative images of ClpP, αSyn (Syn204) and NeuN staining in αSyn PFF-inoculated mouse primary cortical neurons that were pre-treated with TAT or CS2 peptide (scale bar = 30 μm). Neurons were fixed in 4% PFA/4% sucrose/1%Triton-X100 to extract the soluble factions before immunostaining. […] (D-E) Representative images of β-tubulin (Tuj1) and pS129-αSyn (pS129) staining in αSyn PFF-inoculated mouse primary cortical neurons that were pre-treated with TAT or CS2 peptide (scale bar = 30 μm). […] (F-H) Representative images of PSD95, Synapsin1 (SYN1) and pS129 staining in αSyn PFF-inoculated mouse primary cortical neurons that were pre-treated with TAT or CS2 peptide (scale bar = 30 μm).
(A) Experimental schematic of TAT or CS2 peptide treatment in mouse primary cortical neurons inoculated with human αSyn PFF: Primary cortical neurons were isolated from E18 mouse cortex (see methods) and plated on coverslips (Day -5); neurons were treated with human αSyn PFF on Day 0 at 50 ng/ml; On Day 4, TAT or CS2 (1µM) was added daily till Day 9.
(B) Total protein lysates were harvested from primary neurons inoculated with αSyn-PFF after treatment with TAT or PBS, and subjected for western blot. Shown are the representative blots.

[3] = 3 and 10 mg/kg/day s.c., 8 weeks, n = 3 mice/group

CC(C)[C@H](NC(=O)CNC(=O)CNC(=O)CCCCCNC(=O)[C@H](CCCNC(=N)N)NC(=O)[C@H](CCCNC(=N)N)NC(=O)[C@H](CCCNC(=N)N)NC(=O)[C@H](CCC(N)=O)NC(=O)[C@H](CCCNC(=N)N)NC(=O)[C@H](CCCNC(=N)N)NC(=O)[C@H](CCCCN)NC(=O)[C@H](CCCCN)NC(=O)[C@H](CCCNC(=N)N)NC(=O)CNC(=O)[C@@H](N)Cc1ccc(O)cc1)C(=O)N[C@H](C(=O)N[C@H](C(=O)N[C@@H](C)C(=O)O)[C@@H](C)O)C(C)C [CS2, TAT-C6-GGVVTA]
ClpP–αSyn interaction in midbrain ([1]; 3 mg/kg/day s.c., anti-ClpP IP, n = 3 mice/group): abolish the interaction between ClpP and αSyn
other mitochondrial matrix proteins in midbrain ([1]; 3 mg/kg/day s.c., western blot of LonP, ClpX, n = 3–5 mice/group): without affecting other mitochondrial matrix proteins
ClpP expression in midbrain [1, 3]: restored ClpP expression in the midbrain
detergent-insoluble αSyn in midbrain [1, 3]: reduced levels of soluble pS129-αSyn and detergent-insoluble αSyn
soluble pS129-αSyn in midbrain [1, 3]: reduced levels of soluble pS129-αSyn
ClpP–αSyn interaction, 3 vs 10 mg/kg/day ([1]; s.c., comparison with 10 mg/kg/day): without disparity from 10 mg/kg/day
ClpP expression, PFF neurons ([2]; five days): rescued the expression of ClpP
ClpP / αSyn co-localization ([2]; five days, n = 12–13 neurons/group): reduced this colocalization
insoluble αSyn, PFF neurons ([2]; detergent-insoluble, n = 20-30 neurons per group): significantly reduced the insoluble ClpP and αSyn signal
insoluble ClpP ([2]; detergent-insoluble, n > 30 neurons/group): significantly reduced the insoluble ClpP and αSyn signal
pS129-αSyn level, PFF neurons ([2]; n = 3–6): markedly reduced the level of pS129-αSyn
Synapsin1/PSD95 colocalization ([2]; n > 30 areas): substantially restored Synapsin1/PSD95 colocalization
